# Measurements published in patent publication US10512624B2, “Long-chain amphipathic dicarboxylic acids for treatment of diabetes type-1” (Syndromex Ltd., priority 2016, dated 2019).
# How the values were obtained:
# [1] = system: adipose adenylate cyclase; settings: cited from earlier work
# [2] = system: T1D patients; settings: insulin-treated (>1 u/kg body weight/day) T1D patients, meta-analysis (ref 12); cited from earlier work
# [3] = system: STZ diabetic rat model, NOD mouse model; settings: cited from earlier work
# [4] = system: STZ diabetic rats; assay: Anti-diabetic efficacy in streptozotocin (STZ) diabetic rats (FBG, IPGTT, IPITT, fluid balance, insulin/glucagon content); format: in vivo, rat; settings: sub-therapeutic insulin NPH 3 u/kg b.i.d alone, STZ diabetic rats
# Description: Male Sprague-Dawley (SD) rats weighing 250-275 gr were fed ad libitum (Harlan Teklad 2018), had free access to water, and were kept on a 12:12 h light:dark cycle. Experimental type 1 diabetes (T1D) was induced in overnight fasted rats by a single intra-peritoneal injection of streptozotocin (STZ, 60 mg/kg body weight, Sigma Aldrich) freshly prepared in 0.1 M of cold citrate buffer (pH 4.5), followed by oral 10% glucose solution for the next 24 hours to overcome STZ-induced acute hypoglycemia. STZ diabetic rats (defined as having a fasting blood glucose (FBG) level higher than 300 mg/dl) were selected for further studies.
# SHAM (control) rats were injected with 0.1 M of cold citrate buffer (pH 4.5). STZ diabetic or SHAM rats were dosed twice daily by gavage (orally) with 1% CMC (Sigma Aldrich C5678), or with HOOC—C(CH3)2—(CH2)12—C(CH3)2—COOH (2,2,15,15-tetramethylhexadecane-1,16-dioic acid) also termed herein “MEDICA16αα”, “Medica16αα” or M16αα(15 mg/kg body weight) suspended in 1% CMC, or injected intraperitoneal (i.p.) with Neutral Protamine Hagedorn (NPH) insulin (3 u/kg body weight b.i.d), as indicated.
# (§1) Administering a combination of Medica16αα and insulin was performed by treating STZ diabetic rats (FBG >300 mg/dl) with oral MEDICA16αα(15 mg/kg b.i.d) for five consecutive days, then MEDICA16αα-responsive rats were further treated with MEDICA16αα(15 mg/kg b.i.d) for 10 additional consecutive days (“STZ/MEDICA Res”), and MEDICA16αα non-responsive rats (FBG >250 mg/dl) were further treated for 10 additional consecutive days with either insulin Neutral Protamine Hagedorn (NPH) (3 u/kg b.i.d subcutaneously) (“STZ/NPH”), or with insulin NPH (3 u/kg b.i.d subcutaneously in combination with oral MEDICA16αα(15 mg/kg b.i.d) (“STZ/MEDICA NPH”).
# Tail vein FBG was verified daily by a glucometer (Glucometer®, Accu-Check® Performa, Roche Diagnostics). Urine secretion, food and water consumption were measured in standard metabolic cages (Tecniplast™ Metabolic Cage Systems for Rodents) for 48 hour periods. Samples were collected and recorded every 12 hour.
# Overnight fasted rats were injected i.p (1 gr glucose/kg bw) with 20% dextrose solution (Teva Medical). Tail vein blood was sampled on 0, 30, 60, 90 and 120 minutes following glucose injection.
# Fasted rats (5 hours fast) were injected i.p (2 u/kg bw) with HumulinR insulin (Eli Lilly). Tail blood glucose levels were measured by glucometer at 0, 15, 30, 60, and 120 min following insulin injection.
# (§2) Pancreas and plasma insulin and glucagon content were determined by insulin (Millipore, Cat #RI-13K) and glucagon (Millipore, Cat # GL-32K) radioimmunoassay (RIA) kits. cAMP levels were measured by cAMP kit (Arbor Assays, DetectX Cat # K019-H1).
# [5] = system: hepatic gluconeogenesis; assay: Suppression of hepatic gluconeogenesis in STZ diabetic rats (RT-PCR, Western blot, cAMP kit); format: in vivo, rat
# Description: as §1
# Sampled frozen tissue was homogenized (Polytron) in lysis buffer (50 mM Tris HCl, pH 8.0, 1% Triton X-100, 1 mM EGTA, 1 mM EDTA, 150 mM NaCl, 5 mM NaPPi, 50 mM NaF, 1 mM PMSF, 1 mM Na Vanadate, 40 nM bpVfan and protease inhibitor cocktail (Sigma)), and centrifuged for 15 min at 12,500 rpm.
# Protein lysates were prepared in sodium dodecyl sulfate (SDS) sample buffer (62 mM Tris (pH 6.8), 2.3% SDS, […] mercaptoethanol, 10% glycerol), and were subjected to SDS-PAGE, electro-transferred onto cellulose nitrate membranes (Schleicher & Schuell) and probed with the indicated first antibody, followed by HRP-labeled second antibody. Protein concentration was determined by BCA (Thermo Scientific). Bands were detected by ECL, and the intensity of individual bands was determined by densitometry using ImageJ 1.48 v software.
# Sampled frozen tissue was homogenized (Polytron) in lysis buffer (50 mM Hepes (pH 7.4), 150 mM NaCl, 10% Glycerol, 1.5 mM MgCl2, 1 mM EGTA, 1% Triton, 50 mM β-glycerolphosphate, 25 mM NaF, 1 mM Na-vanadate, 40 nM bpVphen, protease inhibitor mix (Sigma) and 17.5 mg/ml octyl beta-D-glucopyranoside (Sigma)). Lysates were kept on ice for 30 min and centrifuged at 12000 rpm for 15 min. Lysates ([…]) were incubated for 4 h with protein A/G beads (Santa Cruz Biotechnology) pre-loaded with the indicated antibody. The immune-precipitate was rinsed 3 times with washing buffer (20 mM Hepes (pH 7.4), 150 mM NaCl, 0.1% Tx-100, 10% glycerol), re-suspended in SDS sample buffer, boiled for 8 min, and analyzed by SDS-PAGE.
# Total RNA was prepared using the TRI reagent (Sigma Aldrich). First-strand cDNA used as template was synthesized by reverse transcription using oligo(dT) as primer and the Reverse-iTMAX First Strand Kit (ABgene, Epson). Glucose-6-phosphatase (G6Pase) and phosphoenolpyruvate carboxykinase (PEPCK) transcripts normalized by tubulin were quantified by real-time PCR (Rotor Gene RG-3000A) using SYBER green MasterMix (Absolute Syber Green ROX Mix, ABgene) and the following primers: […]
# as §2
molecule,measurement,setting,value
"CC(C)(CCCCCCCCCCC(C)(C)CC(=O)O)CC(=O)O [MEDICA16ββ, 3,3,14,14-tetramethylhexadecane-1,16-dioic acid]",adipose adenylate cyclase,[1],inhibit
CN(C)C(=N)N=C(N)N [metformin],reduction in daily insulin usage,[2],1.4 u/d
same,"normalizing STZ-induced diabetes, or preventing or delaying autoimmune T1D in NOD mouse",[3],ineffective or only marginally effective
"insulin NPH: Neutral Protamine Hagedorn (NPH) insulin, intermediate-acting insulin, used at sub-therapeutic dose 3 u/kg b.i.d","controlling glycemia (FBG, IPGTT, IPITT, fluid balance)",[4],without any effect
same,hepatic phospho-CREB(Ser179),[5],ineffective
same,hepatic phospho-CRTC2(Ser171),[5],not
same,hepatic glucose-6-phosphatase and PEPCK transcripts,[5]; compared with STZ/CMC and SHAM/CMC,essentially unaffected
